According to ChEMBL document CHEMBL6092167, “Phosphorylation as an Effective Tool to Improve Stability and Reduce Toxicity of Antimicrobial Peptides” (J Med Chem, 2024):
Values after ≈ are worked out from the molar mass of the structure shown. Active and inactive are the calls of the source. The rule behind the calls is not given here. Non-standard residues stand in square brackets, D forms with d. Residues, ends and D or L forms follow the SMILES beside them. Bip = N[C@@H](Cc1ccc(-c2ccccc2)cc1)C(=O)O; pY = N[C@@H](Cc1ccc(OP(=O)(O)O)cc1)C(=O)O

Experiments:
[1] = tested on: Cell membrane; assay: Induction of cytoplasmic membrane rupture in Staphylococcus aureus ATCC 25923 assessed as shrinkage at 2 times MIC incubated for 30 to 120 mins by SEM analysis; type: subcellular; conditions: time 30-120 min
[2] = tested on: Staphylococcus aureus; assay: Antibacterial activity against Staphylococcus aureus ATCC 25923 infected in BALB/c mouse systemic infection model assessed as reduction in bacterial load in lung at 20 mg/kg, ip pre-infected for 2 hrs followed by compound addition and measured after 8 hrs postinfection; type: functional, organism-based; conditions: time 6.0 hrs
[3] = Toxicity in ip dosed BALB/c mouse assessed as hemorrhage in kidney at LD50 dose by H and E staining based assay; type: organism-based; conditions: in vivo
[4] = tested on: Klebsiella pneumoniae; assay: Antibacterial activity against Klebsiella pneumoniae ATCC 700603 infected in BALB/c mouse lung infection model assessed as increase in mouse survival at 5 mg/kg, ip administered twice daily for 3 days and measured for 7 days; type: functional, organism-based; conditions: time 10.0 day
[5] = tested on: Pseudomonas aeruginosa; assay: Antibacterial activity against Pseudomonas aeruginosa ATCC 27853 incubated for 18 to 24 hrs by broth microdilution method; type: functional; conditions: time 18-24 hrs
[6] = tested on: Escherichia coli; assay: Antibacterial activity against Escherichia coli 780 incubated for 18 to 24 hrs by broth microdilution method; type: functional; conditions: time 18-24 hrs
[7] = Toxicity in ip dosed BALB/c mouse assessed as hemorrhage in lung at LD50 dose by H and E staining based assay; type: organism-based; conditions: in vivo
[8] = tested on: Pseudomonas aeruginosa; assay: Inhibition of biofilm formation in Pseudomonas aeruginosa ATCC 27853 incubated for 24 hrs by crystal violet staining based assay; type: functional, organism-based
[9] = Toxicity in ip dosed BALB/c mouse assessed as inflammatory cell infiltration in lung at LD50 dose by H and E staining based assay; type: organism-based; conditions: in vivo
[10] = tested on: Klebsiella pneumoniae; assay: Antibacterial activity against Klebsiella pneumoniae ATCC 700603 infected in BALB/c mouse lung infection model assessed as increased healing at 5 mg/kg, ip administered twice daily for 3 days and measured for 7 days; type: functional, organism-based; conditions: time 10.0 day
[11] = tested on: Escherichia coli; assay: Antibacterial activity against Escherichia coli 25922 assessed as interaction with LPS by measuring bacterial mortality at 2 times MIC preincubated with LPS for 1 hr followed by bacterial addition and measured after overnight by microplate reader assay; type: functional, organism-based
[12] = tested on: Cell membrane; assay: Induction of inner membrane permeabilization in Escherichia coli ML-35 assessed as increase in […] intensity measured every 5 mins for 135 mins by ONPG dye based microplate reader assay; type: subcellular
[13] = tested on: Escherichia coli; assay: Antibacterial activity against Escherichia coli ATCC 25922 incubated for 18 to 24 hrs by broth microdilution method; type: functional; conditions: time 18-24 hrs
[14] = tested on: Klebsiella pneumoniae; assay: Antibacterial activity against Klebsiella pneumoniae ATCC 700603 infected in BALB/c mouse lung infection model assessed as improved alveolar aggregation at 5 mg/kg, ip administered twice daily for 3 days and measured after 7 days; type: functional, organism-based; conditions: time 10.0 day
[15] = tested on: Escherichia coli; assay: Antibacterial activity against Escherichia coli ATCC 25922 assessed as fold increase in MIC preincubated with serum for 6 hrs followed by 15 mins inactivation prior to bacteria addition and measured after 18 to 24 hrs; type: functional; conditions: time 18-24 hrs
[16] = tested on: Staphylococcus aureus; assay: Antibacterial activity against Staphylococcus aureus ATCC 25923 infected in BALB/c mouse systemic infection model assessed as reduction in bacterial load in spleen at 20 mg/kg, ip pre-infected for 2 hrs followed by compound addition and measured after 8 hrs postinfection; type: functional, organism-based; conditions: time 6.0 hrs
[17] = Toxicity in ip dosed BALB/c mouse assessed as inflammatory cell infiltration in kidney at LD50 dose by H and E staining based assay; type: organism-based; conditions: in vivo
[18] = tested on: Cell membrane; assay: Induction of outer membrane permeabilization in Escherichia coli ATCC 25922 assessed as increase in fluorescence intensity incubated for 1 min by NPN dye based microplate reader assay; type: subcellular
[19] = tested on: Cell membrane; assay: Induction of cell membrane disruption in Staphylococcus aureus ATCC 25923 at 2 times MIC incubated for 2 hrs by SEM analysis; type: subcellular
[20] = tested on: Staphylococcus aureus; assay: Antibacterial activity against Staphylococcus aureus ATCC 25923 assessed as fold increase in MIC preincubated with serum for 6 hrs followed by 15 mins inactivation prior to bacteria addition and measured after 18 to 24 hrs; type: functional; conditions: time 18-24 hrs
[21] = tested on: Klebsiella pneumoniae; assay: Inhibition of biofilm formation in Klebsiella pneumoniae ATCC 700603 incubated for 24 hrs by crystal violet staining based assay; type: functional, organism-based
[22] = Toxicity in ip dosed BALB/c mouse assessed as liver edema at LD50 dose by H and E staining based assay; type: organism-based; conditions: in vivo
[23] = tested on: Staphylococcus aureus; assay: Antibacterial activity against Staphylococcus aureus ATCC 25923 infected in BALB/c mouse systemic infection model assessed as reduction in bacterial load in liver at 21.21 mg/kg, ip pre-infected for 2 hrs followed by compound addition and measured after 8 hrs postinfection; type: functional, organism-based; conditions: time 6.0 hrs
[24] = Toxicity in ip dosed BALB/c mouse assessed as effect on heart at LD50 dose by H and E staining based assay; type: organism-based; conditions: in vivo
[25] = tested on: Staphylococcus aureus; assay: Antibacterial activity against Staphylococcus aureus ATCC 25923 infected in BALB/c mouse systemic infection model assessed as improved alveoli dilation at 21.21 mg/kg, ip pre-infected for 2 hrs followed by compound addition and measured after 8 hrs postinfection; type: functional, organism-based; conditions: time 6.0 hrs
[26] = tested on: Staphylococcus aureus; assay: Antibacterial activity against Staphylococcus aureus ATCC 25923 infected in BALB/c mouse systemic infection model assessed as reduction in inflammatory response in lung tissue at 21.21 mg/kg, ip pre-infected for 2 hrs followed by compound addition and measured after 8 hrs postinfection; type: functional, organism-based; conditions: time 6.0 hrs
[27] = Toxicity in ip dosed BALB/c mouse assessed as effect on lung at LD50 dose by H and E staining based assay; type: organism-based; conditions: in vivo
[28] = Toxicity in ip dosed BALB/c mouse assessed as liver bleeding at LD50 dose by H and E staining based assay; type: organism-based; conditions: in vivo
[29] = tested on: Klebsiella pneumoniae; assay: Antibacterial activity against Klebsiella pneumoniae ATCC 700603 infected in BALB/c mouse lung infection model assessed as increased healing at 5.31 mg/kg, ip administered twice daily for 3 days and measured for 7 days; type: functional, organism-based; conditions: time 10.0 day
[30] = tested on: Staphylococcus aureus; assay: Antibacterial activity against Staphylococcus aureus ATCC 25923 infected in BALB/c mouse systemic infection model assessed as reduction in bacterial load in spleen at 21.21 mg/kg, ip pre-infected for 2 hrs followed by compound addition and measured after 8 hrs postinfection; type: functional, organism-based; conditions: time 6.0 hrs
[31] = tested on: Staphylococcus aureus; assay: Bactericidal activity against Staphylococcus aureus ATCC 25923 at 2 times MIC within 120 mins by time kill assay; type: functional, organism-based
[32] = tested on: Staphylococcus aureus; assay: Antibacterial activity against Staphylococcus aureus ATCC 25923 in presence of ZnCl2; type: functional, organism-based
[33] = tested on: Escherichia coli; assay: Antibacterial activity against Escherichia coli ATCC 25922 in presence of ZnCl2; type: functional, organism-based
[34] = tested on: Klebsiella pneumoniae; assay: Antibacterial activity against Klebsiella pneumoniae ATCC 700603 infected in BALB/c mouse lung infection model assessed as improved alveolar aggregation at 5.31 mg/kg, ip administered twice daily for 3 days and measured after 7 days; type: functional, organism-based; conditions: time 10.0 day
[35] = tested on: Staphylococcus aureus; assay: Antibacterial activity against Staphylococcus aureus ATCC 25923 in presence of MgCl2; type: functional, organism-based
[36] = Toxicity in ip dosed BALB/c mouse assessed as kidney edema at LD50 dose by H and E staining based assay; type: organism-based; conditions: in vivo
[37] = tested on: Staphylococcus aureus; assay: Antibacterial activity against Staphylococcus aureus ATCC 25923 assessed as fold increase in MIC in presence of Na+; type: functional
[38] = tested on: Staphylococcus aureus; assay: Antibacterial activity against Staphylococcus aureus ATCC 25923 preincubated with serum for 6 hrs followed by 15 mins inactivation prior to bacteria addition and measured after 18 to 24 hrs; type: functional, organism-based; conditions: time 18-24 hrs

For `CC(C)C[C@H](NC(=O)[C@H](CC(C)C)NC(=O)[C@H](Cc1ccc(O)cc1)NC(=O)[C@H](CCCCN)NC(=O)[C@H](CC(C)C)NC(=O)[C@H](CCCNC(=N)N)NC(=O)[C@H](CCCCN)NC(=O)[C@H](Cc1ccc(-c2ccccc2)cc1)NC(=O)[C@H](CC(C)C)NC(=O)CN)C(N)=O` (H-GL[Bip]KRLKYLL-NH2), the Activity [1] was “Active”, the Activity [2] was “Active” and the Activity [3] was “Toxic”. The Activity [4] was “Active; Comparable Activity To Polymyxin B”, the MIC [5] was 8 µM (≈ 10.6 µg/mL) and the MIC [6] was 8 µM (≈ 10.6 µg/mL). The Activity [7] was “Toxic”, the inhibition [8] was “Dose-dependent-effect; Inhibition Comparable To Polymyxin B” and the Activity [9] was “Toxic”. For the same compound, the Activity [10] was “Active”, the Activity [11] was “Active; Activity Comparable To Polymyxin B” and the Activity [12] was “Dose-dependent-effect; More Potent Than 1% Triton X-100 And Polymyxin B”. The MIC [13] was 8 µM (≈ 10.6 µg/mL), the Activity [14] was “Active” and the “fold change (FC)” value [15] was 2. The Activity [16] was “Active”, the Activity [17] was “Toxic” and the Activity [18] was “Dose-dependent-effect”. The Activity [19] was “Active; More Potent Than Polymyxin B And Vancomycin”, the “fold change (FC)” value [20] was 2 and the inhibition [21] was “Dose-dependent-effect; Inhibition Comparable To Polymyxin B”.

With `CC(C)C[C@H](NC(=O)[C@H](CC(C)C)NC(=O)[C@H](Cc1ccc(OP(=O)(O)O)cc1)NC(=O)[C@H](CCCCN)NC(=O)[C@H](CC(C)C)NC(=O)[C@H](CCCNC(=N)N)NC(=O)[C@H](CCCCN)NC(=O)[C@H](Cc1ccc(-c2ccccc2)cc1)NC(=O)[C@H](CC(C)C)NC(=O)CN)C(N)=O` (H-GL[Bip]KRLK[pY]LL-NH2) the Activity [1] was “Active”, the Activity [22] was “Toxic” and the Activity [23] was “Active”. For the same compound, the Activity [24] was “Toxic”, the MIC [5] was 16 µM (≈ 22.5 µg/mL) and the MIC [6] was 8 µM (≈ 11.2 µg/mL). For the same compound, the inhibition [8] was “Dose-dependent-effect; Inhibition Comparable To Polymyxin B”, the Activity [25] was “Active” and the Activity [11] was “Active; Activity Comparable To Polymyxin B”. For the same compound, the Activity [12] was “Dose-dependent-effect; More Potent Than 1% Triton X-100 And Polymyxin B”, the Activity [26] was “Active” and the Activity [27] was “Toxic”. For the same compound, the MIC [13] was 8 µM (≈ 11.2 µg/mL), the Activity [28] was “Toxic” and the Activity [29] was “Active”. For the same compound, the Activity [30] was “Active”, the Activity [31] was “Active” and the Activity [18] was “Dose-dependent-effect”. The Activity [19] was “Active; More Potent Than Polymyxin B And Vancomycin”, the Activity [32] was “Active; Compound Showed Excellent Tolerance Towards Salt Environment” and the Activity [33] was “Active; Compound Showed Excellent Tolerance Towards Salt Environment”. The Activity [34] was “Active”, the Activity [35] was “Active; Compound Showed Excellent Tolerance Towards Salt Environment” and the inhibition [21] was “Dose-dependent-effect; Inhibition Comparable To Polymyxin B”. For the same compound, the Activity [36] was “Toxic”, the Activity [37] was “Active; Compound Showed Excellent Tolerance Towards Salt Environment” and the Activity [38] was “Active; Antibacterial Activity Remained Unaffected”.
